Test results from PubChem BioAssay (NCI).
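1) Cells in 96-well plates. 2) Compound, 48 h, 5 concentrations. 3) Linear interpolation between surrounding doses. 4) Unreached endpoint = highest concentration. GI50 is the concentration that inhibits growth by half. TGI is the concentration that stops growth completely.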

What was measured:
Assay in all cases: NCI anticancer screen, dose series, 48 h
786-0 renal = tested on: 786-0 renal
A498 renal = tested on: A498 renal
A549 NSCLC = tested on: A549 NSCLC
ACHN renal = tested on: ACHN renal
BT-549 breast = tested on: BT-549 breast
CAKI-1 renal = tested on: CAKI-1 renal
CCRF-CEM leukemia = tested on: CCRF-CEM leukemia
COLO 205 colon = tested on: COLO 205 colon
DU-145 prostate = tested on: DU-145 prostate
EKVX NSCLC = tested on: EKVX NSCLC
HCC-2998 colon = tested on: HCC-2998 colon
HCT-116 colon = tested on: HCT-116 colon
HCT-15 colon = tested on: HCT-15 colon
HL-60(TB) leukemia = tested on: HL-60(TB) leukemia
HOP-62 NSCLC = tested on: HOP-62 NSCLC
HOP-92 NSCLC = tested on: HOP-92 NSCLC
HS 578T breast = tested on: HS 578T breast
HT29 colon = tested on: HT29 colon
IGROV1 ovarian = tested on: IGROV1 ovarian
K-562 leukemia = tested on: K-562 leukemia
KM12 colon = tested on: KM12 colon
LOX IMVI melanoma = tested on: LOX IMVI melanoma
M14 melanoma = tested on: M14 melanoma
MALME-3M melanoma = tested on: MALME-3M melanoma
MCF7 breast = tested on: MCF7 breast
MDA-MB-231 breast = tested on: MDA-MB-231 breast
MDA-MB-435 = tested on: MDA-MB-435
MOLT-4 leukemia = tested on: MOLT-4 leukemia
NCI-H226 lung = tested on: NCI-H226 lung
NCI-H23 lung = tested on: NCI-H23 lung
NCI-H460 lung = tested on: NCI-H460 lung
NCI-H522 lung = tested on: NCI-H522 lung
NCI/ADR-RES ovarian = tested on: NCI/ADR-RES ovarian
OVCAR-4 ovarian = tested on: OVCAR-4 ovarian
OVCAR-5 ovarian = tested on: OVCAR-5 ovarian
OVCAR-8 ovarian = tested on: OVCAR-8 ovarian
PC-3 prostate = tested on: PC-3 prostate
RPMI-8226 leukemia = tested on: RPMI-8226 leukemia
RXF 393 renal = tested on: RXF 393 renal
SF-268 CNS = tested on: SF-268 CNS
SF-295 CNS = tested on: SF-295 CNS
SF-539 CNS = tested on: SF-539 CNS
SK-MEL-2 melanoma = tested on: SK-MEL-2 melanoma
SK-MEL-28 melanoma = tested on: SK-MEL-28 melanoma
SK-MEL-5 melanoma = tested on: SK-MEL-5 melanoma
SK-OV-3 ovarian = tested on: SK-OV-3 ovarian
SN12C renal = tested on: SN12C renal
SNB-19 CNS = tested on: SNB-19 CNS
SNB-75 CNS = tested on: SNB-75 CNS
SW-620 colon = tested on: SW-620 colon
T-47D breast = tested on: T-47D breast
TK-10 renal = tested on: TK-10 renal
U251 CNS = tested on: U251 CNS
UACC-257 melanoma = tested on: UACC-257 melanoma
UACC-62 melanoma = tested on: UACC-62 melanoma
UO-31 renal = tested on: UO-31 renal

SMILES: CCCCCc1ccc(S(=O)(=O)N(C(C)=O)c2cccc(-c3csc(N(CCN4CCN(C)CC4)C(C)=O)n3)c2)cc1
- GI50 (786-0 renal): 0.642 µM
- TGI (786-0 renal): 2 µM
- GI50 (A498 renal): 1.24 µM
- TGI (A498 renal): 4.75 µM
- GI50 (A549 NSCLC): 3.03 µM
- TGI (A549 NSCLC): 6.27 µM
- GI50 (ACHN renal): 3.52 µM
- TGI (ACHN renal): 6.77 µM
- GI50 (BT-549 breast): 2.94 µM
- TGI (BT-549 breast): 6.04 µM
- GI50 (CAKI-1 renal): 2.93 µM
- TGI (CAKI-1 renal): 6.2 µM
- GI50 (CCRF-CEM leukemia): 1.95 µM
- TGI (CCRF-CEM leukemia): 7.49 µM
- GI50 (COLO 205 colon): 0.815 µM
- TGI (COLO 205 colon): 2.96 µM
- GI50 (DU-145 prostate): 3.48 µM
- TGI (DU-145 prostate): 6.81 µM
- GI50 (EKVX NSCLC): 3.79 µM
- TGI (EKVX NSCLC): 7.27 µM
- GI50 (HCC-2998 colon): 1.15 µM
- TGI (HCC-2998 colon): 4.07 µM
- GI50 (HCT-116 colon): 0.929 µM
- TGI (HCT-116 colon): 3.41 µM
- GI50 (HCT-15 colon): 0.837 µM
- TGI (HCT-15 colon): 2.98 µM
- GI50 (HL-60(TB) leukemia): 0.991 µM
- TGI (HL-60(TB) leukemia): 4.51 µM
- GI50 (HOP-62 NSCLC): 3.58 µM
- TGI (HOP-62 NSCLC): 7.3 µM
- GI50 (HOP-92 NSCLC): 1.06 µM
- TGI (HOP-92 NSCLC): 4.62 µM
- GI50 (HS 578T breast): 3.3 µM
- TGI (HS 578T breast): 10.8 µM
- GI50 (HT29 colon): 0.856 µM
- TGI (HT29 colon): 2.71 µM
- GI50 (IGROV1 ovarian): 2.96 µM
- TGI (IGROV1 ovarian): 6.61 µM
- GI50 (K-562 leukemia): 0.751 µM
- TGI (K-562 leukemia): 3.01 µM
- GI50 (KM12 colon): 4.04 µM
- TGI (KM12 colon): 8.04 µM
- GI50 (LOX IMVI melanoma): 0.085 µM
- TGI (LOX IMVI melanoma): 1.26 µM
- GI50 (M14 melanoma): 2.23 µM
- TGI (M14 melanoma): 5.64 µM
- GI50 (MALME-3M melanoma): 1.58 µM
- TGI (MALME-3M melanoma): 5.04 µM
- GI50 (MCF7 breast): 0.83 µM
- TGI (MCF7 breast): 3.3 µM
- GI50 (MDA-MB-231 breast): 2.64 µM
- TGI (MDA-MB-231 breast): 5.96 µM
- GI50 (MDA-MB-435): 0.987 µM
- TGI (MDA-MB-435): 3.74 µM
- GI50 (MOLT-4 leukemia): 1.22 µM
- TGI (MOLT-4 leukemia): 5.26 µM
- GI50 (NCI-H226 lung): 4.09 µM
- TGI (NCI-H226 lung): 8.82 µM
- GI50 (NCI-H23 lung): 3.8 µM
- TGI (NCI-H23 lung): 7.39 µM
- GI50 (NCI-H460 lung): 1.4 µM
- TGI (NCI-H460 lung): 4.61 µM
- GI50 (NCI-H522 lung): 3.91 µM
- TGI (NCI-H522 lung): 7.55 µM
- GI50 (NCI/ADR-RES ovarian): 3.5 µM
- TGI (NCI/ADR-RES ovarian): 7.55 µM
- GI50 (OVCAR-4 ovarian): 3.49 µM
- TGI (OVCAR-4 ovarian): 7.42 µM
- GI50 (OVCAR-5 ovarian): 3.5 µM
- TGI (OVCAR-5 ovarian): 6.81 µM
- GI50 (OVCAR-8 ovarian): 3.51 µM
- TGI (OVCAR-8 ovarian): 6.95 µM
- GI50 (PC-3 prostate): 3.32 µM
- TGI (PC-3 prostate): 7.06 µM
- GI50 (RPMI-8226 leukemia): 2.5 µM
- TGI (RPMI-8226 leukemia): 7.53 µM
- GI50 (RXF 393 renal): 1.19 µM
- TGI (RXF 393 renal): 4.35 µM
- GI50 (SF-268 CNS): 3.56 µM
- TGI (SF-268 CNS): 7.6 µM
- GI50 (SF-295 CNS): 3.63 µM
- TGI (SF-295 CNS): 7.15 µM
- GI50 (SF-539 CNS): 3.64 µM
- TGI (SF-539 CNS): 7.01 µM
- GI50 (SK-MEL-2 melanoma): 3.99 µM
- TGI (SK-MEL-2 melanoma): 7.44 µM
- GI50 (SK-MEL-28 melanoma): 3.07 µM
- TGI (SK-MEL-28 melanoma): 6.22 µM
- GI50 (SK-MEL-5 melanoma): 3.31 µM
- TGI (SK-MEL-5 melanoma): 6.57 µM
- GI50 (SK-OV-3 ovarian): 4.04 µM
- TGI (SK-OV-3 ovarian): 7.64 µM
- GI50 (SN12C renal): 3.4 µM
- TGI (SN12C renal): 6.75 µM
- GI50 (SNB-19 CNS): 3.63 µM
- TGI (SNB-19 CNS): 7.14 µM
- GI50 (SNB-75 CNS): 1.06 µM
- TGI (SNB-75 CNS): 5.21 µM
- GI50 (SW-620 colon): 0.824 µM
- TGI (SW-620 colon): 3.19 µM
- GI50 (T-47D breast): 2.79 µM
- TGI (T-47D breast): 6.73 µM
- GI50 (TK-10 renal): 4.08 µM
- TGI (TK-10 renal): 7.57 µM
- GI50 (U251 CNS): 2.75 µM
- TGI (U251 CNS): 5.81 µM
- GI50 (UACC-257 melanoma): 4.37 µM
- TGI (UACC-257 melanoma): 8.1 µM
- GI50 (UACC-62 melanoma): 4.21 µM
- TGI (UACC-62 melanoma): 7.79 µM
- GI50 (UO-31 renal): 2.86 µM
- TGI (UO-31 renal): 5.96 µM
